Read-outs that look alike come from different tables or passages of the source. One block for each compound: values may come before it.
Legend:
HEK293 [1] = assay: cells; set-up: Inhibition of cell proliferation, 5 days; settings: Homo sapiens, HEK293, 120 h; read-out: IC50 Proliferation HEK293
Text: (§1) Next, we set out to test the ability of a single pan-KRAS degrading molecule, compound 4, to selectively suppress oncogenic signaling and proliferation in cancer cell lines driven by diverse KRAS mutants. To this end, we first confirmed degradation of KRAS by compound 4 in KRAS-dependent (GP2d, SW620 and NCI-H358 expressing KRAS^G12D, - G12V or -G12C, respectively) as well as in KRAS independent (A-375, HEK293) cell lines (Fig. 3A, fig. S4A). […] Both inhibition and degradation repressed the established markers of MAPK signaling pERK (fig. S4B-D) and DUSP6 (Fig. 3B, fig. S4E) in KRAS dependent cell lines. […] Neither degradation nor inhibition had appreciable antiproliferative effects in the KRAS independent cell lines A-375 and HEK293 (Fig. 3C, fig. S4F). […] Pan-KRAS degradation impacts MAPK signaling and cancer cell proliferation.

GP2d [2] = assay: cells; set-up: Inhibition of cell proliferation, 5 days; settings: 120 h, read-out: IC50 Proliferation GP2d
Text: as §1

SW620 [3] = assay: cells; set-up: Inhibition of cell proliferation, 5 days; settings: Homo sapiens, SW-620, 120 h; read-out: IC50 Proliferation SW620
Text: as §1

A375 [4] = assay: cells; set-up: Inhibition of cell proliferation, 5 days; settings: Homo sapiens, A-375, 120 h; read-out: IC50 Proliferation A375
Text: as §1

NCI-H358 [5] = assay: cells; set-up: Inhibition of cell proliferation, 5 days; settings: Homo sapiens, NCI-H358, 120 h; read-out: IC50 Proliferation NCI-H358
Text: as §1

NCI-H358 [6] = assay: cells; set-up: pERK levels by capillary electrophoresis; settings: Homo sapiens, NCI-H358, 6 h
Experimental: (§2) Protein Detection by Capillary Electrophoresis Cells (50 000) were seeded the day before treatment into 96-well clear-flat bottom plates and incubated overnight (37 °C, humidified tissue culture incubator, 5% CO2). Compounds were added from DMSO stock solution using a digital dispenser and cells are incubated at 37 °C as specified (24 hours for KRAS degradation, 6 hours for determination of pERK levels). At the end of the incubation, medium was removed, cells washed with ice cold PBS, PBS removed and 50 µL lysis buffer (Meso Scale Discovery #R60TX-2) supplemented with 1:100 protease inhibitor solution, 1:100 phosphatase inhibitor I, 1:100 phosphatase inhibitor II (Meso Scale Discovery #R70AA-1), 0.5 µL/mL Benzonase (Novagen #70664-3) and 10 mM dithiothreitol added to each well. Plates with lysis buffer were immediately transferred to -80 °C freezer for at least 2 hours and then thawed on ice. Lysates were transferred to a 96 well V-bottom plate and insoluble debris was pelleted by centrifugation for 20 min. at 4 000 rpm. 40 µL of the supernatant were transferred to a fresh Eppendorf PCR plate. Analysis of protein levels was conducted using the Wes System, ProteinSimple (https://www.bio-techne.com/) as specified by the manufacturer. Briefly, Wes Master Mix (12-230 kDa WES Separation Module, 8 × 25 capillary cartridges, ProteinSimple #SM-W004) and molecular weight markers were prepared as specified in the manufacturer’s recommendations. To detect primary antibodies, anti-rabbit (Protein Simple #DM-001) or anti-mouse (Protein Simple #DM-002) detection modules were used. 7.2 µL lysate + 1.8 µL master mix were combined and heated to 95 °C for 5 min. Th

NCI-H358 [7] = assay: cells; set-up: DUSP6 modulation; settings: Homo sapiens, NCI-H358, 6 h; read-out: IC50 DUSP6
Text: (§3) Next, we set out to test the ability of a single pan-KRAS degrading molecule, compound 4, to selectively suppress oncogenic signaling and proliferation in cancer cell lines driven by diverse KRAS mutants. To this end, we first confirmed degradation of KRAS by compound 4 in KRAS-dependent (GP2d, SW620 and NCI-H358 expressing KRAS^G12D, - G12V or -G12C, respectively) as well as in KRAS independent (A-375, HEK293) cell lines (Fig. 3A, fig. S4A). […] Both inhibition and degradation repressed the established markers of MAPK signaling pERK (fig. S4B-D) and DUSP6 (Fig. 3B, fig. S4E) in KRAS dependent cell lines. […] Neither degradation nor inhibition had appreciable antiproliferative effects in the KRAS independent cell lines A-375 and HEK293 (Fig. 3C, fig. S4F).

HEK293 [8] = assay: cells; set-up: pERK levels by capillary electrophoresis; settings: Homo sapiens, HEK293, 6 h
Experimental: as §2

GP2d [9] = assay: cells; set-up: pERK levels by capillary electrophoresis; settings: GP2d, 6 h
Experimental: as §2

SW620 [10] = assay: cells; set-up: pERK levels by capillary electrophoresis; settings: Homo sapiens, SW-620, 6 h
Experimental: as §2

A375 [11] = assay: cells; set-up: pERK levels by capillary electrophoresis; settings: Homo sapiens, A-375, 6 h
Experimental: as §2

KRAS^WT = biological target: T1, KRAS^WT (Homo sapiens, UniProt P01116); assay: cell-based; set-up: KRAS degradation by capillary electrophoresis immunodetection; settings: A-375; read-out: Dmax 24 h A375 [%]
T1 construct: endogenous wild type
Experimental: as §2, with “[…] Next, we set out to test the ability of a single pan-KRAS degrading molecule, compound 4, to selectively suppress oncogenic signaling and proliferation in cancer cell lines driven by diverse KRAS mutants. To this end, we first confirmed degradation of KRAS by compound 4 in KRAS-dependent (GP2d, SW620 and NCI-H358 expressing KRAS^G12D, - G12V or -G12C, respectively) as well as in KRAS independent (A-375, HEK293) cell lines (Fig. 3A, fig. S4A). […] Both inhibition and degradation repressed the established markers of MAPK signaling pERK (fig. S4B-D) and DUSP6 (Fig. 3B, fig. S4E) in KRAS dependent cell lines. […] Neither degradation nor inhibition had appreciable antiproliferative effects in the KRAS independent cell lines A-375 and HEK293 (Fig. 3C, fig. S4F).” for “Th”

GP2d [12] = assay: cells; set-up: DUSP6 modulation; settings: GP2d, 6 h; read-out: IC50 DUSP6
Text: as §3

SW620 [13] = assay: cells; set-up: DUSP6 modulation; settings: Homo sapiens, SW-620, 6 h; read-out: IC50 DUSP6
Text: as §3

KRAS^G12V = KRAS^G12V (Homo sapiens, UniProt P01116, G12V); assay: cell-based; set-up: endogenous; KRAS degradation by capillary electrophoresis immunodetection; settings: SW-620; read-out: Dmax 24 h SW620 [%]
Experimental: as §2, with “[…] Next, we set out to test the ability of a single pan-KRAS degrading molecule, compound 4, to selectively suppress oncogenic signaling and proliferation in cancer cell lines driven by diverse KRAS mutants. To this end, we first confirmed degradation of KRAS by compound 4 in KRAS-dependent (GP2d, SW620 and NCI-H358 expressing KRAS^G12D, - G12V or -G12C, respectively) as well as in KRAS independent (A-375, HEK293) cell lines (Fig. 3A, fig. S4A). […] Both inhibition and degradation repressed the established markers of MAPK signaling pERK (fig. S4B-D) and DUSP6 (Fig. 3B, fig. S4E) in KRAS dependent cell lines. […] Neither degradation nor inhibition had appreciable antiproliferative effects in the KRAS independent cell lines A-375 and HEK293 (Fig. 3C, fig. S4F).” for “Th”

KRAS^G12D = KRAS^G12D (Homo sapiens, UniProt P01116, G12D); assay: cell-based; set-up: endogenous; KRAS degradation by capillary electrophoresis immunodetection; settings: GP2d; read-out: Dmax 24 h GP2d [%]
Experimental: as §2, with “[…] Next, we set out to test the ability of a single pan-KRAS degrading molecule, compound 4, to selectively suppress oncogenic signaling and proliferation in cancer cell lines driven by diverse KRAS mutants. To this end, we first confirmed degradation of KRAS by compound 4 in KRAS-dependent (GP2d, SW620 and NCI-H358 expressing KRAS^G12D, - G12V or -G12C, respectively) as well as in KRAS independent (A-375, HEK293) cell lines (Fig. 3A, fig. S4A). […] Both inhibition and degradation repressed the established markers of MAPK signaling pERK (fig. S4B-D) and DUSP6 (Fig. 3B, fig. S4E) in KRAS dependent cell lines. […] Neither degradation nor inhibition had appreciable antiproliferative effects in the KRAS independent cell lines A-375 and HEK293 (Fig. 3C, fig. S4F).” for “Th”

KRAS = biological target: T2, KRAS (Homo sapiens, UniProt P01116, C118S/G12V); assay: SPR, biotinylated KRAS immobilised; assay type: binding
T2 construct: residues 1-169, C118S background; His6 tag removed, E. coli; biotinylated for SPR
T2 sequence (P01116 1-169 G12V/C118S): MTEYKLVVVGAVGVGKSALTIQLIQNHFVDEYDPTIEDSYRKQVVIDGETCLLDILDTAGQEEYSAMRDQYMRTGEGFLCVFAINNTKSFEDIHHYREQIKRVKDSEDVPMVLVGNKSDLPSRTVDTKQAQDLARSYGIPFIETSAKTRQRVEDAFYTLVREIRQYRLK

T1 sequence (P01116 whole entry): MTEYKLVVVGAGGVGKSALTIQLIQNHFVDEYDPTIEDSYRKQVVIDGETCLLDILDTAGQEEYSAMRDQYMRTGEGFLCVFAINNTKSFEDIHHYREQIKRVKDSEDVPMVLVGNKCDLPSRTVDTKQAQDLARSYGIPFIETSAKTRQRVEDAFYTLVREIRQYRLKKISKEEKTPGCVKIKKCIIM
Chain of KRAS^G12V (P01116 whole entry G12V): as the sequence (P01116 whole entry) above, with G12V counted along it
Chain of KRAS^G12D (P01116 whole entry G12D): as the sequence (P01116 whole entry) above, with G12D counted along it

IC50 (SW620 [3]): 208 nM | IC50 (A375 [4]): > 1000 nM | IC50 (NCI-H358 [5]): 613 nM
Structure (SMILES): C[C@H](Oc1ccnc(-c2noc([C@@]3(C)CCCc4sc(N)c(C#N)c43)n2)n1)[C@@H]1CCCN1C [BI-2865]
IC50 (HEK293 [1]): > 1000 nM | IC50 (GP2d [2]): 251 nM

IC50 (NCI-H358 [6]): 29 nM | IC50 (NCI-H358 [7]): 5.6 nM | IC50 (NCI-H358 [5]): 12.3 nM
Structure (SMILES): C=CC(=O)N1CCN(c2nc(=O)n(-c3c(C)ccnc3C(C)C)c3nc(-c4c(O)cccc4F)c(F)cc23)[C@@H](C)C1 [sotorasib]

IC50 (GP2d [9]): 1.3 nM | IC50 (SW620 [10]): > 1000 nM | IC50 (A375 [11]): > 1000 nM | Dmax (KRAS^WT): < 15% | IC50 (GP2d [12]): 0.1 nM | IC50 (SW620 [13]): 310 nM | Dmax (KRAS^G12V): < 15% | Dmax (KRAS^G12D): < 15%
Structure (SMILES): C#Cc1c(F)ccc2cc(O)cc(-c3ncc4c(N5C[C@H]6CC[C@@H](C5)N6)nc(OC[C@@]56CCCN5C[C@H](F)C6)nc4c3F)c12 [MRTX1133]
IC50 (HEK293 [8]): > 1000 nM | IC50 (GP2d [2]): 2.4 nM

Kd (KRAS): 25 nM
Structure (SMILES): C[C@H]1CNCCCN1c1nccc(-c2noc([C@@]3(C)CCCc4sc(N)c(C#N)c43)n2)n1 [compound 1]

From article doi:10.1101/2023.10.24.563163v2, “Targeting cancer with small molecule pan-KRAS degraders” (biorxiv, 2024)
